This is an account of results in PubChem BioAssay (NCI).

Several values for one entry are separate records, joined by “and”; a condition that tells them apart may be missing. Equal values may be shown once.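 Briefly, cells in 96-well plates were exposed to five compound concentrations for 48 h, and endpoints were estimated by linear interpolation. Here, GI50 denotes the concentration required for 50% inhibition of growth. The concentration for full growth arrest is given as TGI.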

Holding throughout (test): DTP human tumour cell line panel, 48 h
The subject of experiment [1] is A498 renal.
For experiment [2], the system named is MCF7 breast.
Experiment [3] deals with SNB-19 CNS.
The test system of experiment [4] is HCT-116 colon.
Experiment [5] has as its system BT-549 breast.
The test system of experiment [6] is UO-31 renal.
The subject of experiment [7] is MOLT-4 leukemia.
The subject of experiment [8] is NCI-H522 lung.
Experiment [9] has as its system NCI-H226 lung.
Experiment [10] relates to UACC-257 melanoma.

Take `Cc1cccc(Oc2nccc(-c3c(-c4ccc(F)cc4)ncn3C3CCNCC3)n2)c1C`: the GI50 (as a rule, the concentration at which growth is held to half of that of the control) in experiment [1] is 6.22 µM; in [2], 6.68 µM; in [3], 10.2 µM; in experiment [4], 7.26 µM; in [5], 10.9 µM; in experiment [6], 4.97 µM. The GI50 in [7] was 7.17 µM; in experiment [8] it was 9.84 µM. Moreover, the TGI (commonly the concentration giving total growth inhibition) is more than 15.7 µM in [1]; more than 14.4 µM in experiment [2]; more than 25 µM in experiment [3]; more than 17.8 µM in experiment [4]; more than 19.6 µM in experiment [5]; more than 19.9 µM in experiment [6]. Further, the figures for the TGI in experiment [7] and in experiment [8] were 17.6 µM and more than 16.2 µM, respectively.

Regarding `NS(=O)(=O)c1cc2c(cc1Cl)NC(Cc1ccccc1)NS2(=O)=O` (stereo not drawn), the TGI in experiment [1], in [9], in experiment [2], in experiment [3], in experiment [4] and in experiment [5] was more than 100 µM in each case. The TGI in [10], in [6] and in experiment [8] was more than 100 µM each time.

For the compound `OCCCN=NNc1ccc(-c2nc3ccccc3[nH]2)cc1`, the GI50 was 26.2 µM in experiment [9]; 0.0891 µM in [2]; 22.9 µM in experiment [3]; 34.4 µM in [5]; 10.4 µM in experiment [10]; 23.9 µM in experiment [6]. The GI50 is 43.6 µM in [7] and 12.5 µM in experiment [8]. The TGI in experiment [9] is 58.9 µM; in [2], 2.4 µM; in [3] it was 48.8 µM; in experiment [5], 96.8 µM; in experiment [10], more than 100 µM; in experiment [6] it was 78.1 µM. For the same compound, the TGI in [7] is more than 100 µM; in [8], 60.6 µM.

As for `CCCCCCCC/C=C/CCCCCCCCC1=NCCN1CCO`, the GI50 in experiment [1] was 2.34 µM; in experiment [9] it was 9.91 µM; in experiment [2], 1.77 µM; in [3], 7.21 µM; in experiment [5], 11.3 µM; in [10] it was 11.8 µM. Also, the values for the GI50 in experiment [6], in [7] and in [8] were 1.76 µM, 2.1 µM and 6.34 µM, respectively. Besides, the TGI is 15.5 µM in experiment [1]; 33.7 µM in experiment [9]; 4.02 µM in experiment [2]; 33.2 µM in experiment [3]; 40.2 µM in experiment [5]; 25 µM in experiment [10]. The figures for the concentration for total growth inhibition (TGI) in experiment [6], in experiment [7] and in experiment [8] were 3.75 µM, 4.73 µM and 25.9 µM, respectively.

As to `CS(=O)CCCCCN=C=S` (stereo not drawn), the GI50 in [1] was 10.4 µM; in experiment [9] it was 17.5 µM; in experiment [2], 2.3 µM; in experiment [3], 16.1 µM; in [4], 2.86 µM; in [5], 3.07 µM. In addition, the GI50 in [10] was 4.35 µM; in [6], 4 µM; in [8], 1.99 µM. Also, the TGI in [1] stood at 23.5 µM; in experiment [9], 44.4 µM; in experiment [2] it was 13.2 µM; in experiment [3], 32.1 µM; in experiment [4] it was 10.2 µM; in experiment [5], 11.5 µM. Also, the figures for the TGI in experiment [10], in [6] and in experiment [8] were 19.7 µM, 17.2 µM and 5.87 µM, respectively.

For `CCNCC(=O)O[C@]1(CC)C(=O)OCc2c1cc1n(c2=O)Cc2cc3ccccc3nc2-1`, the TGI was 4.4 µM in [1]; 1.29 µM in experiment [9]; more than 100 µM in [3]; 3.29 µM in experiment [4]; 26.7 µM in experiment [5]; 12.2 µM in experiment [10]. Moreover, the TGI in [6] turned out to be 1.7 µM; in experiment [7] it was 0.159 µM; in [8] it was 7.97 µM.

Take `COc1ccc(-c2ccc(/C=N/n3c(COc4ccccc4Cl)nn(CN4CCN(C)CC4)c3=S)o2)c([N+](=O)[O-])c1`: the GI50 in [9] was 15.6 µM; in [2] it was 12.9 µM; in experiment [3], 27.1 µM; in experiment [4] it was 16.1 µM; in experiment [5], 17.2 µM; in [6] it was 30.1 µM. The GI50 in experiment [8] is 29.5 µM. Moreover, the TGI was 43.5 µM in experiment [9]; 33.8 µM in [2]; more than 100 µM in [3]; 29.8 µM in experiment [4]; 43 µM in experiment [5]; more than 100 µM in experiment [6]. In addition, in experiment [8], the TGI was more than 100 µM.

Regarding `O=P(O)(O)c1ccccc1` (tested in a mixture with another compound), the TGI in experiment [1], in [9], in [2], in experiment [3], in experiment [4] and in [5] was more than 100 µM each time. Moreover, the TGI in experiment [10], in experiment [6] and in [8] was more than 100 µM throughout.

As to `O=C1C(Br)=CC2(C=C1Br)CCN=c1c2c(O)c2nc3ccccc3c3ccnc1c23`, the GI50 in [1] is 1.6 µM; in [2], 0.765 µM; in experiment [3], 4.59 µM; in [4], 0.674 µM; in [5] it was 5.83 µM; in experiment [6], 0.761 µM. Moreover, the GI50 in [7] is 0.143 µM; in experiment [8], 0.727 µM. For the same compound, the TGI in [1] was found to be 6 µM; in experiment [2] it was 2.69 µM; in experiment [3], 12.1 µM; in [4], 6.15 µM; in experiment [5], 12.2 µM; in experiment [6], 1.55 µM. Also, the TGI is 2.67 µM in [7] and 1.49 µM in [8].

For `CN(C)c1ccc(C(=C2C=CC(=[N+](C)C)C=C2)c2ccc(N(C)C)cc2)cc1` (tested in a mixture with another compound), the GI50 in experiment [1] was 0.0607 µM; in [4], 0.039 µM; in experiment [5], 0.188 µM; in experiment [10] it was 0.211 µM; in experiment [7], 0.293 µM. Moreover, the TGI in [1] turned out to be 0.343 µM; in experiment [3], 1.56 µM; in [4], 1.02 µM; in experiment [5] it was 0.84 µM; in experiment [10] it was 1.3 µM; in experiment [6] it was 1.39 µM. Also, the TGI is 5.67 µM in experiment [7] and 1.06 µM in experiment [8].

Turning to `O=C(OCc1ccccc1)N1CCN(/[N+]([O-])=N/Oc2ccc([N+](=O)[O-])cc2[N+](=O)[O-])CC1`, the GI50 in experiment [9] was 3.55 µM; in experiment [2] it was 2.84 µM; in [3], 13.6 µM; in [4], 2.15 µM; in [5], 8.15 µM; in experiment [10] it was 19.5 µM. Besides, the GI50 is 3.82 µM in experiment [6], 4.47 µM in experiment [7] and 3.66 µM in experiment [8]. Moreover, the TGI in experiment [9] came out at 26.3 µM; in experiment [2], 8.87 µM; in experiment [3] it was 35.8 µM; in [4] it was 7.55 µM; in [5], 23.4 µM; in experiment [10] it was 36.5 µM. The TGI in experiment [6], in [7] and in experiment [8] was more than 100 µM each time.

Take `COc1cc2c(cc1OCCOS(C)(=O)=O)N=C[C@@H]1CCCN1C2=O`: the GI50 was 17.1 µM in experiment [1]; 15.4 µM in experiment [9]; 18.5 µM in experiment [4]; 18.2 µM in [10]; 15.2 µM in [6]; 10.9 µM in experiment [8]. In addition, the TGI in [1] is 48.7 µM; in experiment [9], 33.5 µM; in [2], more than 100 µM; in [3] it was more than 100 µM; in experiment [4], 36.5 µM; in [10] it was 42.8 µM. Moreover, the TGI amounted to 33.1 µM in [6], 65.8 µM in experiment [7] and 30.1 µM in experiment [8].

For `CC[C@H]1CN2CCc3cc(OC)c(OC)cc3[C@@H]2C[C@@H]1C[C@H]1NCCc2cc(O)c(OC)cc21`, the GI50 is 0.0165 µM and 0.025 µM in experiment [1]; 0.0422 µM and 0.0485 µM in [5]. The TGI in [1] was 0.0461 µM and 0.0583 µM; in experiment [9] it was 0.0593 µM and 0.0285 µM; in experiment [3] it was 0.0977 µM and 0.0271 µM; in experiment [5] it was 0.298 µM; in experiment [10], 0.104 µM and 0.346 µM; in experiment [6], 0.15 µM and 1.17 µM. Besides, the TGI in experiment [7] is 0.074 µM and 0.323 µM.

With `CCN(CC)CCCNc1cccc2c(SCc3ccccc3)ccnc12`, the GI50 was 1.92 µM in [1]; 3.45 µM in experiment [9]; 1.62 µM in experiment [2]; 1.83 µM in experiment [3]; 1.6 µM in [4]; 1.62 µM in experiment [5]. For the same compound, the results for the GI50 in experiment [10], in experiment [6] and in experiment [8] were 2.09 µM, 0.828 µM and 1.51 µM, respectively. Further, the concentration for total growth inhibition (TGI) is 4.98 µM in experiment [1]; 15.6 µM in [9]; 3.16 µM in experiment [2]; 3.89 µM in experiment [3]; 2.95 µM in experiment [4]; 3.35 µM in [5]. Also, the TGI in experiment [10] is 3.85 µM; in [6], 2.44 µM; in [8], 3.1 µM.
